The target of assay [1] is Human cGAS (Homo sapiens (Human), UniProt Q8N884). In words: cGAS enzyme assay using TR-FRET. Conditions: Table 5; human cGAS 5 nmol/L, 90 bp dsDNA 100 nmol/L, TR-FRET cGAMP detection; read-out: hcGAS enzyme assay. Format: biochemical.
Assay [2] deals with h-cGAS (Homo sapiens (Human), UniProt Q8N884). Briefly: RapidFire mass spectroscopy assay (cGAMP formation). The class given is biochemical.
Assay [3] relates to THP1 cells. In words: Cell-based TR-FRET cGAMP assay in THP1 cells. Details: species or system human. Particulars: Table 6, PMA-differentiated THP1 cells, 90-bp dsDNA transfection 24 h. Background: TR-FRET usually uses a lanthanide donor and a delayed reading to cut background.
For assay [4], the system named is THP1-Dual cells. In words: Cell-based Lucia luciferase assay in THP1-Dual cells. Particulars: Homo sapiens, Table 4, 100-bp dsDNA transfection 24 h, secreted luciferase reporting interferon-induced gene expression.
Setting [5] is: Table 2, full-length h-cGAS 100 nM, dsDNA 25 nM, ATP and GTP 100 μM, 7 h RT.
The mark [6] stands for this setting: Table 3, compounds from related application PCT/US2019/016673, same RapidFire assay.

h-cGAS, sequence (Q8N884 whole entry): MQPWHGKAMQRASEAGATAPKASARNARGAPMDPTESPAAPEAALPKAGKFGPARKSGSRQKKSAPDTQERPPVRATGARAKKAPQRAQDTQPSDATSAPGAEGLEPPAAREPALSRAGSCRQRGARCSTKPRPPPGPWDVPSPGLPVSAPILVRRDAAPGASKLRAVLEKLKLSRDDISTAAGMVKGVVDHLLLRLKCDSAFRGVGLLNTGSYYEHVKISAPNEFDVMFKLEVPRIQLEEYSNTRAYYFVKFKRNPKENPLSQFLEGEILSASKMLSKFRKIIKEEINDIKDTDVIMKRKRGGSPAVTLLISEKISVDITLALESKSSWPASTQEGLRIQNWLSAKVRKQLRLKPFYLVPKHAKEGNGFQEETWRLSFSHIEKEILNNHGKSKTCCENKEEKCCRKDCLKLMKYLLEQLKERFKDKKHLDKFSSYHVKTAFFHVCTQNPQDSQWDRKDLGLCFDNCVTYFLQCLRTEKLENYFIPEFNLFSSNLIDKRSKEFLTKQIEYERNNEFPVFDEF
Human cGAS, sequence (Q8N884 whole entry): as above

As to `Cn1ccc(-c2ncc(Cl)c3[nH]c4c(c23)CN(C(=O)CO)CC4)n1` [Example 72, 1-[6-Chloro-9-(1-methyl-1H-pyrazol-3-yl)-1,3,4,5-tetrahydro-2H-pyrrolo[3,2-c:4,5-c′]dipyridin-2-yl]-2-hydroxyethan-1-one], in assay [1], the IC50 is 250 nM.
For `COc1nc2c3c([nH]c2c(F)c1Cl)CCN(C(=O)CO)C3` [Example 75, 1-(3-Chloro-4-fluoro-2-methoxy-5,6,7,9-tetrahydro-8H-pyrrolo[3,2-b:4,5-c′]dipyridin-8-yl)-2-hydroxyethan-1-one], in assay [1], the IC50 turned out to be 550 nM.
As to `COCC(=O)N1CCn2nc3c(Cl)c(Cl)ccc3c2C1` [Example 3, 1-(7,8-Dichloro-3,4-dihydropyrazino[1,2-b]indazol-2(1H)-yl)-2-methoxyethan-1-one], in assay [2] (setting [5]), the IC50 came out at 2470 nM.
On to `COCC(=O)N1CCc2[nH]c3c(Cl)cnc(-c4ccn(C)n4)c3c2C1` [Example 73, 1-[6-Chloro-9-(1-methyl-1H-pyrazol-3-yl)-1,3,4,5-tetrahydro-2H-pyrrolo[3,2-c:4,5-c′]dipyridin-2-yl]-2-methoxyethan-1-one], for which the IC50 in assay [1] is 870 nM.
Regarding `O=C(CO)N1CCn2nc3c(Cl)c(Cl)ccc3c2C1` [Example 4, 1-(7,8-Dichloro-3,4-dihydropyrazino[1,2-b]indazol-2(1H)-yl)-2-hydroxyethan-1-one], the IC50 amounted to 1460 nM in assay [2] (setting [5]) and 21000 nM in assay [1].
Regarding `CCOc1nc2c3c([nH]c2c(Cl)c1Cl)CCN(C(=O)CO)C3` [Example 77, 1-(3,4-Dichloro-2-ethoxy-5,6,7,9-tetrahydro-8H-pyrrolo[3,2-b:4,5-c′]dipyridin-8-yl)-2-hydroxyethan-1-one], in assay [1], the IC50 was 3000 nM.
Regarding `COCC(=O)N1CCn2nc3c(Cl)c(Cl)cc(-c4ccn(C)n4)c3c2C1` [Example 68, 1-[7,8-Dichloro-10-(1-methyl-1H-pyrazol-3-yl)-3,4-dihydropyrazino[1,2-b]indazol-2(1H)-yl]-2-methoxyethan-1-one], the IC50 was determined as 240 nM in assay [1] and 330 nM in assay [3] (Homo sapiens, THP-1).
In the case of `O=C(CO)N1CCc2[nH]c3c(F)c(Cl)c(OC(F)F)nc3c2C1` [Example 82, 1-[3-Chloro-2-(difluoromethoxy)-4-fluoro-5,6,7,9-tetrahydro-8H-pyrrolo[3,2-b:4,5-c′]dipyridin-8-yl]-2-hydroxyethan-1-one], in assay [1], the IC50 was determined as 15000 nM.
Same read-out and setting: the value for `Cn1ccc(-c2nc(Cl)c(Cl)c3c2c2c(n3C)CCN(C(=O)CO)C2)n1` [Example 34, 1-[6,7-Dichloro-5-methyl-9-(1-methyl-1H-pyrazol-3-yl)-1,3,4,5-tetrahydro-2H-pyrrolo[3,2-c:4,5-c′]dipyridin-2-yl]-2-hydroxyethan-1-one] was 150 nM; that for `Cc1noc(-c2cc(Cl)c(F)c3nn4c(c23)CN(C(=O)CO)CC4)n1` [Example 71, 1-[8-Chloro-7-fluoro-10-(3-methyl-1,2,4-oxadiazol-5-yl)-3,4-dihydropyrazino[1,2-b]indazol-2(1H)-yl]-2-hydroxyethan-1-one] was 1400 nM.
Turning to `O=C(CO)N1CCc2[nH]c3c(F)c(Cl)cc(N4CCS(=O)(=O)C4)c3c2C1` [TDI-008867, reference compound], the IC50 in assay [2] (setting [6]) was 6930 nM; in assay [4], above 10000 nM.
As for `CCOc1nc2c3c([nH]c2c(F)c1Cl)CCN(C(=O)CO)C3` [Example 78, 1-(3-Chloro-2-ethoxy-4-fluoro-5,6,7,9-tetrahydro-8H-pyrrolo[3,2-b:4,5-c′]dipyridin-8-yl)-2-hydroxyethan-1-one], the IC50 in assay [1] stood at 3700 nM.
Take `Cn1ccc(-c2ccc(Cl)c3nn4c(c23)CN(C(=O)CO)CC4)n1` [Example 69, 1-[7-Chloro-10-(1-methyl-1H-pyrazol-3-yl)-3,4-dihydropyrazino[1,2-b]indazol-2(1H)-yl]-2-hydroxyethan-1-one]: the IC50 in assay [1] was found to be 280 nM.
Turning to `COCC(=O)N1CCc2[nH]c3cc(Cl)ncc3c2C1` [Example 2, 1-(7-Chloro-1,3,4,5-tetrahydro-2H-pyrrolo[3,2-c:4,5-c′]dipyridin-2-yl)-2-methoxyethan-1-one], the IC50 in assay [2] (setting [5]) was 2410 nM; in assay [1], above 30000 nM.
Regarding `Cn1ccc(-c2nc(Cl)c(Cl)c3[nH]c4c(c23)CN(C(=O)CO)CC4)n1` [Example 25, 1-[6,7-Dichloro-9-(1-methyl-1H-pyrazol-3-yl)-1,3,4,5-tetrahydro-2H-pyrrolo[3,2-c:4,5-c′]dipyridin-2-yl]-2-hydroxyethan-1-one], in assay [1], the IC50 was determined as 95 nM.
For the compound `O=C(CO)N1CCc2[nH]c3c(Cl)c(Cl)c(OC(F)F)nc3c2C1` [Example 81, 1-[3,4-Dichloro-2-(difluoromethoxy)-5,6,7,9-tetrahydro-8H-pyrrolo[3,2-b:4,5-c′]dipyridin-8-yl]-2-hydroxyethan-1-one], the IC50 in assay [1] was determined as 2400 nM.
On to `COCC(=O)N1CCc2nn3c(Cl)c(Cl)ccc3c2C1` [Example 5, 1-(7,8-Dichloro-3,4-dihydropyrazolo[1,5-a:4,3-c′]dipyridin-2(1H)-yl)-2-methoxyethan-1-one], for which the IC50 was 21800 nM in assay [2] (setting [5]) and above 30000 nM in assay [1].
Turning to `O=C(CO)N1CCc2[nH]c3c(Cl)c(Cl)c(OCC4CC4)nc3c2C1` [Example 79, 1-[3,4-Dichloro-2-(cyclopropylmethoxy)-5,6,7,9-tetrahydro-8H-pyrrolo[3,2-b:4,5-c′]dipyridin-8-yl]-2-hydroxyethan-1-one], the IC50 in assay [1] came out at 5900 nM.
Same read-out and setting: the value for `O=C(CO)N1CCc2[nH]c3c(F)c(Cl)c(OCC4CC4)nc3c2C1` [Example 80, 1-[3-Chloro-2-(cyclopropylmethoxy)-4-fluoro-5,6,7,9-tetrahydro-8H-pyrrolo[3,2-b:4,5-c′]dipyridin-8-yl]-2-hydroxyethan-1-one] was 5000 nM; that for `Cn1ccc(-c2ncc(Cl)c3c2c2c(n3C)CCN(C(=O)CO)C2)n1` [Example 74, 1-[6-Chloro-5-methyl-9-(1-methyl-1H-pyrazol-3-yl)-1,3,4,5-tetrahydro-2H-pyrrolo[3,2-c:4,5-c′]dipyridin-2-yl]-2-hydroxyethan-1-one] was 290 nM.
Take `COc1nc2c3c([nH]c2c(Cl)c1Cl)CCN(C(=O)CO)C3` [Example 1, 1-(3,4-Dichloro-2-methoxy-5,6,7,9-tetrahydro-8H-pyrrolo[3,2-b:4,5-c′]dipyridin-8-yl)-2-hydroxyethan-1-one]: the IC50 came to 61.6 nM in assay [2] (setting [5]); 10700 nM in assay [4]; 190 nM in assay [1]; 2500 nM in assay [3] (Homo sapiens, THP-1).
`Cc1nnc(-c2cc(Cl)c(F)c3nn4c(c23)CN(C(=O)CO)CC4)o1` [Example 70, 1-[8-Chloro-7-fluoro-10-(5-methyl-1,3,4-oxadiazol-2-yl)-3,4-dihydropyrazino[1,2-b]indazol-2(1H)-yl]-2-hydroxyethan-1-one]: the IC50 in assay [1] came out at 7500 nM.
The compound `O=C(CO)N1CCc2[nH]c3c(Cl)c(Cl)cc(-c4cn[nH]c4)c3c2C1` [TDI-007445, reference compound] returned an IC50 in assay [2] (setting [6]) of 27.5 nM.
For the compound `Cn1ccc(-c2cc(Cl)c(F)c3nn4c(c23)CN(C(=O)CO)CC4)n1` [Example 64, 1-[8-Chloro-7-fluoro-10-(1-methyl-1H-pyrazol-3-yl)-3,4-dihydropyrazino[1,2-b]indazol-2(1H)-yl]-2-hydroxyethan-1-one], in assay [1], the IC50 was determined as 180 nM.
For `Cc1cc(-c2ncn(C)n2)c2c3c([nH]c2c1Cl)CCN(C(=O)CO)C3` [TDI-008989, reference compound], the IC50 in assay [2] (setting [6]) was 45.9 nM; in assay [4] it was 6710 nM.
With `O=C(CO)N1CCc2nn3c(Cl)c(Cl)ccc3c2C1` [Example 6, 1-(7,8-Dichloro-3,4-dihydropyrazolo[1,5-a:4,3-c′]dipyridin-2(1H)-yl)-2-hydroxyethan-1-one], the IC50 in assay [2] (setting [5]) is 20800 nM.
For the compound `N#Cc1ccc2c3c([nH]c2c1C#N)CCN(C(=O)CO)C3` [TDI-006932, reference compound], in assay [2] (setting [6]), the IC50 is above 25000 nM.
For the compound `COCC(=O)N1CCc2[nH]c3c(Cl)c(Cl)nc(-c4ccn(C)n4)c3c2C1` [Example 30, 1-[6,7-Dichloro-9-(1-methyl-1H-pyrazol-3-yl)-1,3,4,5-tetrahydro-2H-pyrrolo[3,2-c:4,5-c′]dipyridin-2-yl]-2-methoxyethan-1-one], the IC50 in assay [1] came out at 210 nM.
For the compound `O=C(CO)N1CCc2[nH]c3c(Cl)c(Cl)cc(-c4ccc(NC(=O)C(F)(F)F)cc4)c3c2C1` [TDI-008458, reference compound], the IC50 in assay [2] (setting [6]) is 629 nM.
On to `COc1nc2c3c([nH]c2c(Cl)c1Cl)C(C)(C)CN(C(=O)CO)C3` [Example 76, 1-(3,4-Dichloro-2-methoxy-6,6-dimethyl-5,6,7,9-tetrahydro-8H-pyrrolo[3,2-b:4,5-c′]dipyridin-8-yl)-2-hydroxyethan-1-one], for which, in assay [1], the IC50 came to 850 nM.
Consider “1-[7,8-Dichloro-10-(1-methyl-1H-pyrazol-3-yl)-3,4-dihydropyrazino[1,2-b]indazol-2(1H)-yl]-2-hydroxyethan-1-one [Example 67]”, for which, in assay [3], the IC50 was determined as 140 nM.

For the origin of these results see US12522603B2, “Inhibitors of gas for treating autoinflammatory diseases and cancer metastasis” (The Rockefeller University, priority 2019, dated 2026).
